The values below come from patent US20080280886A1, “SUBSTITUTED UREAS” (AUSPEX PHARMACEUTICALS, INC., priority 2007, published 2008).

Data set [1] is described as follows: In vitro liver microsomal stability assay. The format is in vitro ADME. The following applies: 1 mg per mL liver microsome protein, NADPH-generating system, 5 microgram per mL compound, 37° C., 0-60 min, LC/MS/MS. The procedure: Liver microsomal stability assays are conducted at 1 mg per mL liver microsome protein with an NADPH-generating system in 2% NaHCO3 (2.2 mM NADPH, 25.6 mM glucose 6-phosphate, 6 units per mL glucose 6-phosphate dehydrogenase and 3.3 mM MgCl2). Test compounds are prepared as solutions in 20% acetonitrile-water and added to the assay mixture (final assay concentration 5 microgram per mL) and incubated at 37° C. Final concentration of acetonitrile in the assay should be <1%. Aliquots (50 μL) are taken out at times 0, 15, 30, 45, and 60 min, and diluted with ice cold acetonitrile (200 μL) to stop the reactions. Samples are centrifuged at 12,000 RPM for 10 min to precipitate proteins. Supernatants are transferred to microcentrifuge tubes and stored for LC/MS/MS analysis of the degradation half-life of the test compounds.
On the technique in general: Microsomes from liver hold many membrane-bound enzymes, among them those of drug oxidation.

A further data set deals with dopamine release. Particulars: Li et al. 2005; cited from earlier work.
Data set [2] deals with hyperactivity induced by NMDA receptor antagonist MK-801. Particulars: Vanover et al. 2006; cited from earlier work.
The test system of data set [3] is DOI-induced head twitches. The following applies: rodent; Vanover et al. 2006; cited from earlier work.

Each structure is given as a SMILES string.

For the compound `[2H]C([2H])(NC(=O)N(C1CCN(C([2H])([2H])[2H])CC1)C([2H])([2H])c1ccc(F)cc1)c1ccc(OC([2H])([2H])C(C)C)cc1` [Example 3, d9-1-(4-Fluorobenzyl)-3-(4-isobutoxybenzyl)-1-(1-methylpiperidin-4-yl)urea hemi-tartrate], the “increase in degradation half-life as compared to the non-isotopically enriched drug (Pimavanserin)” value in data set [1] turned out to be 17%.

Regarding `CC(C)COc1ccc(CNC(=O)N(Cc2ccc(F)cc2)C2CCN(C)CC2)cc1` [Pimavanserin, 1-(4-fluoro-benzyl)-3-(4-isobutoxy-benzyl)-1-(1-methyl-piperidin-4-yl)-urea], the “dopamine release when combined with haloperidol” value in the data set on dopamine release was “potentiate dopamine release”. For the same compound, the “hyperactivity induced by MK-801 (dozocilpine)” value in data set [2] is “attenuate hyperactivity”. In data set [3], the DOI-induced head twitches result was “reduce”.
